The source made the active and inactive calls. No cut-off for these calls is given here.
Experiments:
[1] = Stability assessed as half life; assay type: physicochemical
[2] = biological target: T1, 2-5A-dependent ribonuclease (Homo sapiens) (UniProt Q05823); assay: […] of human RNaseL ANK domain expressed in Escherichia col assessed as 5' flurescein-r(C11U2C7)-3' RNA cleavage relative to control; parameters: concentration or dose not given beside the values
T1 sequence (whole entry): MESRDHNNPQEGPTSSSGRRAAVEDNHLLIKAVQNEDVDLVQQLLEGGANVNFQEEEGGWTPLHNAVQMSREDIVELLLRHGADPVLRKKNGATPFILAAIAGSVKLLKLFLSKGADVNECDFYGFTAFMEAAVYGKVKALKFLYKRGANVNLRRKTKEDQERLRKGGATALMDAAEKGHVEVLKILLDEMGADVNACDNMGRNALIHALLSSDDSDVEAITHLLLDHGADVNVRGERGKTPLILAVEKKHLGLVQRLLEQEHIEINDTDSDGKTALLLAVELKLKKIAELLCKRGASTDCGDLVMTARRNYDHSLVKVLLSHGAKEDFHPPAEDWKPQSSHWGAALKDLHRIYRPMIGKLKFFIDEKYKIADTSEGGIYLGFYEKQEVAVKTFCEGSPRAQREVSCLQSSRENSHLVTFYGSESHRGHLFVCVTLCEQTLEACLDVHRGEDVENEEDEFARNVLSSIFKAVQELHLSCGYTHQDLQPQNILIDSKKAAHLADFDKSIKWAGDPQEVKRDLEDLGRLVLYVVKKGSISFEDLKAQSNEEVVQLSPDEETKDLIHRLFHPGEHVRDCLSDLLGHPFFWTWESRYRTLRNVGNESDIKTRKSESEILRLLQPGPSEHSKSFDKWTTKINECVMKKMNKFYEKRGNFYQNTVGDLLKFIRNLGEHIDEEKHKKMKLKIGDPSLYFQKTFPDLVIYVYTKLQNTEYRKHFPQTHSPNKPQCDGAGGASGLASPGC

[3] = biological target: T2, 2-5A-dependent ribonuclease (Homo sapiens, UniProt Q05823); assay: […] of human RNaseL ANK domain expressed in Escherichia coli assessed as 5' flurescein-r(C11U2C7)-3' RNA cleavage
T2 sequence (Q05823 whole entry): T1 sequence (whole entry)

SMILES | half-life [1] [min] | Activity [2] | EC50 ([3]; read-out: EC50) [nM] | EC50 [3]
Cc1nc2c(N)ncnc2n1[C@@H]1O[C@H](COP(=O)(O)O[C@@H]2[C@H](O)[C@@H](COP(=O)(O)O[C@@H]3[C@H](O)[C@@H](CO)O[C@H]3n3cnc4c(N)ncnc43)O[C@H]2n2cnc3c(N)ncnc32)[C@@H](O)[C@H]1O | 18 | < 0.19% | > 50 | –
Nc1ncnc2c1ncn2[C@@H]1O[C@H](COP(=O)(O)O[C@@H]2[C@H](O)[C@@H](COP(=O)(O)O[C@@H]3[C@H](O)[C@@H](COP(=O)(O)O[C@@H]4[C@H](O)[C@@H](CO)O[C@H]4n4cnc5c(N)ncnc54)O[C@H]3n3cnc4c(N)ncnc43)O[C@H]2n2cnc3c(N)ncnc32)[C@@H](O)[C@H]1O | 18 | inactive | – | Not Active
Cc1nc2c(N)ncnc2n1[C@@H]1O[C@H](COP(=O)(O)O[C@@H]2[C@H](O)[C@@H](COP(=O)(O)O[C@@H]3[C@H](O)[C@@H](CO)O[C@H]3n3cnc4c(N)ncnc43)O[C@H]2n2cnc3c(N)ncnc32)[C@@H](O)[C@H]1OP(=O)(O)OC[C@H]1O[C@@H](n2cnc3c(N)ncnc32)[C@H](O)[C@@H]1O | 18 | < 0.19% | > 50 | –

More lines, now with the values ahead:

half-life [1] [min] | Activity [2] | EC50 ([3]; read-out: EC50) [nM] | EC50 [3] | SMILES
14 | 1% | 9.7 | – | Nc1ncnc2c1ncn2[C@@H]1O[C@H](COP(=O)(O)O[C@@H]2[C@H](O)[C@@H](COP(=O)(O)O[C@@H]3[C@H](O)[C@@H](COP(=O)(O)O[C@@H]4[C@H](O)[C@@H](COP(=O)(O)O)O[C@H]4n4cnc5c(N)ncnc54)O[C@H]3n3cnc4c(N)ncnc43)O[C@H]2n2cnc3c(N)ncnc32)[C@@H](O)[C@H]1O
– | 3.9% | 2.5 | – | Cc1nc2c(N)ncnc2n1[C@@H]1O[C@H](COP(=O)(O)O[C@@H]2[C@H](O)[C@@H](COP(=O)(O)O[C@@H]3[C@H](O)[C@@H](COP(=O)(O)O[C@@H]4[C@H](O)[C@@H](COP(=O)(O)O)O[C@H]4n4cnc5c(N)ncnc54)O[C@H]3n3cnc4c(N)ncnc43)O[C@H]2n2cnc3c(N)ncnc32)[C@@H](O)[C@H]1O
> 90 | 3.9% | 2.5 | – | Cc1nc2c(N)ncnc2n1[C@@H]1O[C@H](COP(=O)(O)O[C@@H]2[C@H](O)[C@@H](COP(=O)(O)O[C@@H]3[C@H](O)[C@@H](COP(=O)(O)O[C@@H]4[C@H](O)[C@@H](CO)O[C@H]4n4cnc5c(N)ncnc54)O[C@H]3n3cnc4c(N)ncnc43)O[C@H]2n2cnc3c(N)ncnc32)[C@@H](O)[C@H]1O

Reference: ChEMBL document CHEMBL1157739, “5'-O-dephosphorylated 2',5'-oligoadenylate (2-5A) with 8-methyladenosine at the 2'-terminus activates human RNase L” (Bioorg Med Chem Lett, 2010)
